Measurements taken from ChEMBL document CHEMBL4342405, “Clinical candidates modulating protein-protein interactions: The fragment-based experience” (Eur J Med Chem, 2019).

Legend:
[1] = Half life in dog; assay type: ADME, Canis lupus familiaris; conditions: in vivo
[2] = Oral bioavailability in rat; assay type: ADME, organism-based; conditions: in vivo
[3] = Oral bioavailability in monkey; assay type: ADME, organism-based, Macaca mulatta; conditions: rhesus monkey, in vivo
[4] = Half life in monkey; assay type: ADME, Macaca mulatta; conditions: rhesus monkey, in vivo
[5] = Half life in mouse; assay type: ADME, organism-based; conditions: in vivo
[6] = Oral bioavailability in mouse; assay type: ADME, organism-based; conditions: in vivo
[7] = Half life in rat; assay type: ADME; conditions: in vivo
[8] = Oral bioavailability in dog; assay type: ADME, organism-based, Canis lupus familiaris; conditions: in vivo
Bcl-2-like protein 1 [9] = target: T1, Bcl-2-like protein 1 (Homo sapiens, UniProt Q07817); assay: Inhibition of BCL-XL (unknown origin) incubated for 15 mins by fluorescence polarization assay
[10] = Toxicity in mouse xenografted with human haematological tumor at 12.5 mg/kg, po; assay type: organism-based
[11] = Half life in human; assay type: ADME
Bcl-2-like protein 2 = target: T2, Bcl-2-like protein 2 (Homo sapiens, UniProt Q92843); assay: Inhibition of BCL-W (unknown origin) by fluorescence polarization assay
T2 sequence (Q92843 whole entry): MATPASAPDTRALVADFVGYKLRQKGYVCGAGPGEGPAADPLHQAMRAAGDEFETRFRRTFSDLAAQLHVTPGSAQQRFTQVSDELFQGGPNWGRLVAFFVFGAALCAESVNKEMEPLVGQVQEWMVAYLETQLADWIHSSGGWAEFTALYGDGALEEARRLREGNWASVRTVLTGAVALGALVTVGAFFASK

Bcl-2-like protein 1 [12] = target: T1, Bcl-2-like protein 1; assay: Binding affinity to BCL-XL (unknown origin) by 15N HSQC NMR analysis

T1 sequence (Q07817 whole entry): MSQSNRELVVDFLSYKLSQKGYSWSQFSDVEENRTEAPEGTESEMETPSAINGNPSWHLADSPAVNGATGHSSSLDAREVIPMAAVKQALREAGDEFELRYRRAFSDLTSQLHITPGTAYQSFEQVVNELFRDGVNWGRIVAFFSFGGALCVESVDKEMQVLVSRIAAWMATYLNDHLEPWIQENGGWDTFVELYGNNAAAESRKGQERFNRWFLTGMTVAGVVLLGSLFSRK

CN(C)CC[C@H](CSc1ccccc1)Nc1ccc(S(=O)(=O)NC(=O)c2ccc(N3CCN(Cc4ccccc4-c4ccc(Cl)cc4)CC3)cc2)cc1[N+](=O)[O-] [ABT 737]
half-life [1]: 4 to 6.4 h | bioavailability [2]: 20% | bioavailability [3]: 20% | half-life [4]: 4 to 6.4 h | half-life [5]: 4 to 6.4 h | bioavailability [6]: 20% | half-life [7]: 4 to 6.4 h | bioavailability [8]: 20%

O=C(O)c1ccc(-c2ccc(F)cc2)cc1/C=C/c1cccc(-c2ccccc2)c1
Ki (Bcl-2-like protein 1 [9]): 1.4 µM

CC1(C)CCC(CN2CCN(c3ccc(C(=O)NS(=O)(=O)c4ccc(NCC5CCOCC5)c([N+](=O)[O-])c4)c(Oc4cnc5[nH]ccc5c4)c3)CC2)=C(c2ccc(Cl)cc2)C1 [VENETOCLAX]
EC50 [10]: 5.5 µM

CCS(=O)(=O)Nc1ccc(Oc2ccc(F)cc2F)c(-c2cn(C)c(=O)c3[nH]ccc23)c1 [MIVEBRESIB]
half-life [11]: 25 h

CC1(C)CCC(c2ccc(Cl)cc2)=C(CN2CCN(c3ccc(C(=O)NS(=O)(=O)c4ccc(N[C@H](CCN5CCOCC5)CSc5ccccc5)c(S(=O)(=O)C(F)(F)F)c4)cc3)CC2)C1 [NAVITOCLAX]
EC50 [10]: 0.083 µM | Ki (Bcl-2-like protein 2): 0.245 µM

Oc1ccc(-c2ccccc2)cc1
Kd (Bcl-2-like protein 1 [12]): 6000 µM
